Test results from article PMC4147378 (Bioorganic & medicinal chemistry, 2014).
Entries after “also recorded” stand apart in the source; their conditions may differ.

How the values were obtained:
[1] = target: T1, GST-hFXR-LBD (Homo sapiens, UniProt Q96RI1); assay: FXR TR-FRET binding assay; conditions: Table 3; ratio fits the TR-FRET binding IC50
T1 sequence (Q96RI1 262-486 limits assumed): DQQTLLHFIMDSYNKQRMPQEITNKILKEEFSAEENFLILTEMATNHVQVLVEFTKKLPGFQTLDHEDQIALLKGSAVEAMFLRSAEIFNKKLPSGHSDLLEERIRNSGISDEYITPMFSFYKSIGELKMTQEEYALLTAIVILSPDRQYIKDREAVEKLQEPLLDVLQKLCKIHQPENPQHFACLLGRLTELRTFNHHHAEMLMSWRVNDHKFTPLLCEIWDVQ

[2] = test system: GeneBLAzer FXR-UAS-bla HEK 293T cells; assay: Cytotoxicity assay in GeneBLAzer FXR cells; format: cell-based, human
[3] = target: T2, FXR (Homo sapiens, UniProt Q96RI1); assay: GeneBLAzer FXR cell-based agonistic; conditions: compound alone, without GW4064; data not shown
T2 sequence (Q96RI1 262-486 limits assumed): T1 sequence (Q96RI1 262-486 limits assumed)

[4] = target: T2, FXR; assay: GeneBLAzer FXR cell-based antagonistic; conditions: data not shown

Row | Compound | activity against FXR at 1 µM [4] | other results
1 | Cc1ccc(-c2nn(CC3CC3)cc2C(=O)Nc2ccc(C)c(S(=O)(=O)N3CCOCC3)c2)cc1 [Compound 4i, 1-(Cyclopropylmethyl)-N-(4-methyl-3-(morpholinosulfonyl)phenyl)-3-(p-tolyl)-1H-pyrazole-4-carboxamide] | – | fold decreased activity for FXR as compared to E16 [1]: 2 fold
2 | COc1cccc(Cn2cc(C(=O)Nc3ccc(C)c(S(=O)(=O)N4CCOCC4)c3)c(-c3ccc(C)cc3)n2)c1 [Compound 4j, 1-(3-Methoxybenzyl)-N-(4-methyl-3-(morpholinosulfonyl)phenyl)-3-(p-tolyl)-1H-pyrazole-4-carboxamide] | – | cytotoxicity [2]: no detectable; also recorded: no cytotoxicity; also recorded: does not have any; FXR agonistic activity [3]: no detectable; also recorded: no FXR agonistic activity; also recorded: does not have any

Further lines, with some results ahead:

Row | activity against FXR at 1 µM [4] | Compound | other results
3 | essentially inactive | Cc1ccc(-c2nn(C(C)C)cc2C(=O)N(C)c2ccc(C)c(S(=O)(=O)N3CCOCC3)c2)cc1 [Compound 8a, 1-Isopropyl-N-methyl-N-(4-methyl-3-(morpholinosulfonyl)phenyl)-3-(p-tolyl)-1H-pyrazole-4-carboxamide] | –
4 | essentially inactive | COc1cccc(Cn2cc(C(=O)N(C)c3ccc(C)c(S(=O)(=O)N4CCOCC4)c3)c(C(C)C)n2)c1 [Compound 8b, 3-Isopropyl-1-(3-methoxybenzyl)-N-methyl-N-(4-methyl-3-(morpholinosulfonyl)phenyl)-1H-pyrazole-4-carboxamide] | –
5 | essentially inactive | COc1cccc(Cn2cc(C(=O)N(C)c3ccc(C)c(S(=O)(=O)N4CCOCC4)c3)c(-c3cccc(OC)c3)n2)c1 [Compound 8c, 1-(3-Methoxybenzyl)-3-(3-methoxyphenyl)-N-methyl-N-(4-methyl-3-(morpholinosulfonyl)phenyl)-1H-pyrazole-4-carboxamide] | –
